Measurements taken from patent publication US11180484B2, “Pyrazole derivatives as plasma kallikrein inhibitors” (KALVISTA PHARMACEUTICALS LIMITED, priority 2016, dated 2021).
In brackets after ≈: the same amount, converted by molar mass. Like-named read-outs stand apart in the source and are kept apart here.

How the values were obtained:
Human Factor XIIa = Human Factor XIIa (Homo sapiens (Human), UniProt P00748); experiment: Factor XIIa inhibitory activity in vitro; type: biochemical; settings: 25° C., substrate H-DPro-Phe-Arg-AFC; read-out: IC50 (human FXIIa)
Chain of Human Factor XIIa (P00748 373-615): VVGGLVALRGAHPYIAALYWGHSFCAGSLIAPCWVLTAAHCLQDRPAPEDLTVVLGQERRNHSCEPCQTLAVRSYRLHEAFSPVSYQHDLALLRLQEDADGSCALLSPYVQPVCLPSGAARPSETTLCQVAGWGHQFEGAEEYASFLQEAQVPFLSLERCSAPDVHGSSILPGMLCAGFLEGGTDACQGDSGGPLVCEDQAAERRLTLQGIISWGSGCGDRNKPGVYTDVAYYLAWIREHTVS
Experimental: (§1) Human Factor XIIa (Enzyme Research Laboratories) was incubated at 25° C. with the fluorogenic substrate H-DPro-Phe-Arg-AFC and various concentrations of the test compound. Residual enzyme activity (initial rate of reaction) was determined by measuring the change in […] at 410 nm and the IC50 value for the test compound was determined.

Human FXIa = Human FXIa (Homo sapiens (Human), UniProt P03951); experiment: Determination of the % inhibition / IC50 for FXIa; type: biochemical; settings: for inhibition at 40 µM: 40 μM test compound, read-out: % Inhibition @ 40 μM (human FXIa); for IC50: 25° C., substrate Z-Gly-Pro-Arg-AFC
Chain of Human FXIa (P03951 388-625): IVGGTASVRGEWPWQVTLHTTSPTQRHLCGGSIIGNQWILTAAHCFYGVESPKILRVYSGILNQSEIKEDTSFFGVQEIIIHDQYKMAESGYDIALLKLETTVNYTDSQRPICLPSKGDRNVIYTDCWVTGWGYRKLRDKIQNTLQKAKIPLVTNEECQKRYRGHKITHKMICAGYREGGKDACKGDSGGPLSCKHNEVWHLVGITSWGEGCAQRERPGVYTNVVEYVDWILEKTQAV
Chain of Human FXIa (P03951 19-387): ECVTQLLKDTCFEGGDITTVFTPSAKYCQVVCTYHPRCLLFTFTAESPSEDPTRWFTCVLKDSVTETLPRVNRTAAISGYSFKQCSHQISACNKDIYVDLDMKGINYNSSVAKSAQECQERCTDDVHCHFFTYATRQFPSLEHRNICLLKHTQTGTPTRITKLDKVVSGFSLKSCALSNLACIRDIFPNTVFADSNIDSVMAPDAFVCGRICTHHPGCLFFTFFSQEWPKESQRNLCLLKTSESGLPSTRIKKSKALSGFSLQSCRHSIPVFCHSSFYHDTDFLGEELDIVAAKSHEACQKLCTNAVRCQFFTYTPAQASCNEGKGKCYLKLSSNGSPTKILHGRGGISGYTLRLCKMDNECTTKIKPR
Experimental: FXIa inhibitory activity in vitro was determined using standard published methods (see e.g. Johansen et al., Int. J. Tiss. Reac. 1986, 8, 185; Shori et al., Biochem. Pharmacol., 1992, 43, 1209; Sturzebecher et al., Biol. Chem. Hoppe-Seyler, 1992, 373, 1025). […]

plasmin = plasmin (Homo sapiens (Human), UniProt P00747); experiment: Determination of enzyme selectivity: plasmin; type: biochemical; settings: substrate at Km concentration
Chain of plasmin (P00747 581-810): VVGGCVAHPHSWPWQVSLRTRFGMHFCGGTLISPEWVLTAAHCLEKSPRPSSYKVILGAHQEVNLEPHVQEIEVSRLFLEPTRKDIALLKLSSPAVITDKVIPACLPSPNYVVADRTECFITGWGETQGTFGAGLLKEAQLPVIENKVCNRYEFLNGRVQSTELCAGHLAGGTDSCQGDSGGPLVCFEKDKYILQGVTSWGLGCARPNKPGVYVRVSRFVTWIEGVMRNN
Chain of plasmin (P00747 97-580): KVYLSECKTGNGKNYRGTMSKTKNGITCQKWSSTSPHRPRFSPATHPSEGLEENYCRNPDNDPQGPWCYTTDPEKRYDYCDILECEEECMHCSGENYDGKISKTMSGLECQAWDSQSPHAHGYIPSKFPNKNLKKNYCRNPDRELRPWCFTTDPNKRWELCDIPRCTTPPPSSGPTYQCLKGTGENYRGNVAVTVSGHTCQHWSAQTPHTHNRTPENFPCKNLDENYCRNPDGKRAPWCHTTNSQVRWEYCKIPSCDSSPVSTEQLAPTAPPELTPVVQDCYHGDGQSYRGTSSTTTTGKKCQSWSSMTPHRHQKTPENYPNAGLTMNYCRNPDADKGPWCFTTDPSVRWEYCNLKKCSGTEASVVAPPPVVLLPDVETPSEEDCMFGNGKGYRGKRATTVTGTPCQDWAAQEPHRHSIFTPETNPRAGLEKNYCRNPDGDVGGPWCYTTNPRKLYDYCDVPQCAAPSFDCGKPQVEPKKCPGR
Experimental: (§4) Human serine protease enzymes plasmin, thrombin and trypsin were assayed for enzymatic activity using an appropriate fluorogenic substrate. Protease activity was measured by monitoring the accumulation of liberated fluorescence from the substrate over 5 minutes. The linear rate of fluorescence increase per minute was expressed as percentage (%) activity. The Km for the cleavage of each substrate was determined by standard transformation of the Michaelis-Menten equation.

Human KLK1 = Human KLK1 (Homo sapiens (Human), UniProt P06870); experiment: Determination of the IC50 for KLK1; type: biochemical; settings: 25° C., substrate H-DVal-Leu-Arg-AFC
Chain of Human KLK1 (P06870 25-262): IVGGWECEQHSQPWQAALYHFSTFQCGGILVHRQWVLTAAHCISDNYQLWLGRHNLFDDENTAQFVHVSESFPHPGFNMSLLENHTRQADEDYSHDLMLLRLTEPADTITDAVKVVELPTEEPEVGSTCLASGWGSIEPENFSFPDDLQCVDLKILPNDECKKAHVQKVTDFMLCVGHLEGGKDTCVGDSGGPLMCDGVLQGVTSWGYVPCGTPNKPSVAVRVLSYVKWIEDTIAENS
Experimental: as §1, with “KLK1 (Callbiochem)” for “Factor XIIa (Enzyme Research Laboratories)”, “H-DVal-Leu-Arg-AFC” for “H-DPro-Phe-Arg-AFC”

[1] = In vitro permeability, Caco-2 model for oral absorption; type: in vitro ADME; settings: human, apical to basolateral, 50 μM test compound, 37° C.
In short: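 Caco-2 monolayers grown on collagen inserts for 3 days, with 50 μM compound added apically and incubated 1 hour at 37° C with shaking. Apical-to-basolateral transport measured by LCMS in both compartments. Monolayer integrity checked by TEER before and after, and by Lucifer Yellow flux.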

[2] = Plasma protein binding (PPB), rapid equilibrium dialysis, human plasma; type: in vitro ADME; settings: 5 μM test compound, dialysis 5 hrs at 37° C.
Experimental: The fraction unbound in plasma was determined using ThermoScientific™ Pierce™ Rapid Equilibrium Dialysis Technology (Single-Use plate with inserts, 8K MWCO). […] Reference samples from the non-dialysed plasma were taken before the incubation to enable an assessment of recovery. Test compound concentrations were determined in plasma and buffer compartments by LCMS against a calibration curve. […] Results are presented as percent plasma protein bound (% PPB).

[3] = Plasma protein binding (PPB), rapid equilibrium dialysis, rat plasma; type: in vitro ADME; settings: 5 μM test compound, dialysis 5 hrs at 37° C.
Experimental: The fraction unbound in plasma was determined using ThermoScientific™ Pierce™ Rapid Equilibrium Dialysis Technology (Single-Use plate with inserts, 8K MWCO). 5 μM test compound was spiked into human or rat plasma (300 μL) and dialysed against 146.5 mM phosphate buffer (500 μL) for 5 hrs at 37° C., shaking at 1200 rpm. Reference samples from the non-dialysed plasma were taken before the incubation to enable an assessment of recovery. Test compound concentrations were determined in plasma and buffer compartments by LCMS against a calibration curve. The fraction unbound in plasma was determined using standard methodology (Waters N J et al (2008) J Pharm Sci 97(10); 4586-95). Results are presented as percent plasma protein bound (% PPB).

[4] = Predicted plasma clearance (Clp), well-stirred model, rat; type: in vitro ADME; settings: percentage of hepatic blood flow
Experimental: (§2) The predicted plasma clearance (Clp) is calculated using the well-stirred model (Rowland M, Benet L Z, and Graham G G. Clearance concepts in pharmacokinetics. J Pharmacokinet Biopharm. (1973) 1:123-136.), one of several models that can be used to extrapolate the in vitro data. The model assumes instantaneous and complete mixing of drug within the liver and is a function of intrinsic clearance, hepatic blood flow and free fraction of drug in the blood. The predicted plasma clearance in mL/min/kg is presented as a percentage of hepatic blood flow (LBF).

[5] = Intrinsic clearance in human liver microsomes; type: in vitro ADME; settings: human liver microsomes 0.5 mg/mL, 5 μM test compound, 37° C.; read-out: Human liver microsome (Clint μL/min/mg protein)
Experimental: (§3) Rat or human liver microsomes (0.5 mg/mL; Corning) were incubated with 5 μM test compound at 37° C. on a shaking platform (150 rpm). Samples were taken at 0, 6, 12, 18, 24 and 60 min and test compound concentrations were determined by LCMS against a calibration curve.

Human plasma kallikrein [6] = target: T1, Human plasma kallikrein (Homo sapiens (Human), UniProt P03952); experiment: Determination of the IC50 for plasma kallikrein; type: biochemical; settings: 25° C., substrate H-DPro-Phe-Arg-AFC; read-out: IC50 (human PKal)
T1 sequence (P03952 391-638): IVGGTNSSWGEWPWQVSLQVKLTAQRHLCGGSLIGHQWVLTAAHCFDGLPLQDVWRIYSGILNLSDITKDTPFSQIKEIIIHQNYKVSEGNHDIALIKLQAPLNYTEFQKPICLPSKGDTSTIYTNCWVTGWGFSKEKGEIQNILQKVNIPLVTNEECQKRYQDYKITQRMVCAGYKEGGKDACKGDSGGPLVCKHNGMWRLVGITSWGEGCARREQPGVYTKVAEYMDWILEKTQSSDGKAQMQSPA
T1 sequence (P03952 20-390): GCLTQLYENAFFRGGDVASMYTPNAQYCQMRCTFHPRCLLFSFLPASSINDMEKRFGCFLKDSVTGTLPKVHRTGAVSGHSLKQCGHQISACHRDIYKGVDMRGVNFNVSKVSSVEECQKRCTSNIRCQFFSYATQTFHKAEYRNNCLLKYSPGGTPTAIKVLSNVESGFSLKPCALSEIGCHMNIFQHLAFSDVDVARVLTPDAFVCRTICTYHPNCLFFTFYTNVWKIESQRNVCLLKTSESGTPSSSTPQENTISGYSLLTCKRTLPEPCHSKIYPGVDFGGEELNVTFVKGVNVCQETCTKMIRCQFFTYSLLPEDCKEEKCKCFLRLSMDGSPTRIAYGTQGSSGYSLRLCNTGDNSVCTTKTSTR
Experimental: as §1, with “plasma kallikrein (Protogen)” for “Factor XIIa (Enzyme Research Laboratories)”

[7] = Intrinsic clearance in rat liver microsomes; type: in vitro ADME; settings: rat liver microsomes 0.5 mg/mL, 5 μM test compound, 37° C.; read-out: rat liver microsome (Clint μL/min/mg protein)
Experimental: as §3

trypsin = experiment: Determination of enzyme selectivity: trypsin; type: biochemical, human; settings: substrate at Km concentration
Experimental: as §4

thrombin = thrombin (Homo sapiens (Human), UniProt P00734); experiment: Determination of enzyme selectivity: thrombin; type: biochemical; settings: substrate at Km concentration
[8] = Predicted plasma clearance (Clp), well-stirred model, human; type: in vitro ADME; settings: percentage of hepatic blood flow
Experimental: as §2

Human plasma kallikrein [9] = target: T1, Human plasma kallikrein; experiment: Determination of the Ki for plasma kallikrein (mixed-model inhibition); type: biochemical; settings: for Ki: human plasma kallikrein, mixed-model inhibition equation; for Alpha: parameter of the mixed-model equation indicating mechanism of inhibition
Experimental: Plasma kallikrein inhibitory activity in vitro was determined using standard published methods (e.g. Johansen et al., Int. J. Tiss. Reac. 1986, 8, 185; Shori et al., Biochem. Pharmacol., 1992, 43, 1209; Sturzebecher et al., Biol. Chem. Hoppe-Seyler, 1992, 373, 1025). […]. Residual enzyme activity (initial rate of reaction) was determined by measuring the change in fluorescence at 410 nm. The Ki value for the test compound was determined using the mixed-model inhibition equation (based on Equation 3.2 in: RA Copeland, Evaluation of Enzyme Inhibitors in Drug Discovery, Wiley 2005) in GraphPad Prism. The mixed model equation includes competitive, uncompetitive and noncompetitive inhibition as special cases and the parameter of Alpha to indicate mechanism of inhibition.

[10] = Solubility in water and 0.1N HCl (aq); type: physicochemical; settings: thermodynamic from solid, incubated at 1 mg/mL, 37° C.
Experimental: Solubility was determined in water and 0.1N HCl (aq). Test compounds were incubated at 1 mg/mL for 24 hrs at 37° C. on a shaking platform (500 rpm). Samples were taken at 1, 4 and 24 hrs and centrifuged at 15,000 g for 10 min. Test compound concentration in the supernatant was determined by LCMS against a standard curve.

[11] = simulated gastric fluid, 0.1N HCl (aq), read-out: Solubility 0.1N HCl (aq)
[12] = water, read-out: Solubility Water

Row | IC50 (Human Factor XIIa) [µM] | inhibition at 40 µM (Human FXIa) [%] | IC50 (Human FXIa) [µM] | IC50 (plasmin) [µM] | IC50 (Human KLK1) [µM] | Papp at 1 h, 50 μM [1] [×10⁻⁶ cm/s] | fraction unbound at 5 h, 5 μM [2] | fraction unbound at 5 h, 5 μM [3] | Predicted in vivo rat Clp (% LBF) [4] [% LBF] | microsomal CLint at 5 μM [5] [µL/min/mg] | IC50 (Human plasma kallikrein [6]) [µM] | microsomal CLint at 5 μM [7] [µL/min/mg] | IC50 (trypsin) [µM] | IC50 (thrombin) [µM] | Predicted in vivo human Clp (% LBF) [8] [% LBF] | Ki (Human plasma kallikrein [9]) [µM] | Alpha (Human plasma kallikrein [9]) | inhibition at 12.7 µM (Human FXIa; 12.7 μM test compound) [%] | solubility [10, 11] [µg/mL] | solubility [10, 12] [µg/mL] | Compound
1 | > 40 | 20 | > 40 | > 40 | > 40 | 5 | 0.24 | 0.13 | 14 | 22 | 0.0004 | 47 | > 40 | > 40 | 17 | 0.0001 | 2.2 | – | – | – | COCc1nn(Cc2ccc(Cn3ccccc3=O)cc2)cc1C(=O)NCc1cc(OC)ccc1-n1cnnn1 [Example 40, N-{[5-methoxy-2-(1,2,3,4-tetrazol-1-yl)phenyl]methyl}-3-(methoxymethyl)-1-({4-[(2-oxopyridin-1-yl)methyl]phenyl}methyl)pyrazole-4-carboxamide]
2 | > 40 | 7 | > 40 | > 40 | > 40 | 20 | 0.08 | 0.05 | 11 | 48 | 0.283 | 73 | > 40 | > 40 | 16 | – | – | – | – | – | COCc1nn(Cc2ccc(Cn3ccccc3=O)cc2)cc1C(=O)NCc1cc(OC)ccc1C#N [Example 37, N-[(2-cyano-5-methoxyphenyl)methyl]-3-(methoxymethyl)-1-({4-[(2-oxopyridin-1-yl)methyl]phenyl}methyl)pyrazole-4-carboxamide]
3 | > 40 | 5 | > 40 | > 40 | > 40 | 13 | 0.1 | 0.04 | 10 | 104 | 0.0017 | 77 | > 40 | > 40 | 35 | – | – | – | – | – | COCc1nn(Cc2ccc(Cn3cc(F)ccc3=O)cc2)cc1C(=O)NCc1c(C#N)ccc(OC)c1F [Example 53, N-[(6-cyano-2-fluoro-3-methoxyphenyl)methyl]-1-({4-[(5-fluoro-2-oxopyridin-1-yl)methyl]phenyl}methyl)-3-(methoxymethyl)pyrazole-4-carboxamide]
4 | > 4 | – | 10.6 | > 40 | > 4 | 6 | 0.1 | 0.06 | 12 | 32 | 0.0007 | 72 | > 40 | 39.2 | 14 | 0.00016 | 6.0 | 53 | 46 (≈ 84.4 µM) | 46 (≈ 84.4 µM) | COCc1nn(Cc2ccc(Cn3ccccc3=O)cc2)cc1C(=O)NCc1cc(Cl)ccc1-n1cnnn1 [Example 72, N-{[5-chloro-2-(1,2,3,4-tetrazol-1-yl)phenyl]methyl}-3-(methoxymethyl)-1-({4-[(2-oxopyridin-1-yl)methyl]phenyl}methyl)pyrazole-4-carboxamide]
5 | > 4 | 27 | > 40 | > 40 | > 4 | 2 | 0.12 | 0.08 | 2 | 10 | 0.0006 | 5 | > 40 | > 40 | 8 | – | – | – | – | – | COc1ccc(C#N)c(CNC(=O)c2cn(Cc3ccc(Cn4ccccc4=O)cc3)nc2N)c1F [Example 43, 3-amino-N-[(6-cyano-2-fluoro-3-methoxyphenyl)methyl]-1-({4-[(2-oxopyridin-1-yl)methyl]phenyl}methyl)pyrazole-4-carboxamide]
6 | > 40 | 5 | > 40 | > 40 | > 40 | 7 | 0.04 | 0.01 | 1 | 24 | 0.0017 | 15 | > 40 | > 40 | 7 | – | – | – | 40 (≈ 83.4 µM) | 20 (≈ 41.7 µM) | COc1ccc(F)c(CNC(=O)c2cn(Cc3ccc(Cn4ccccc4=O)cc3)nc2N)c1F [Example 35, 3-amino-N-[(2,6-difluoro-3-methoxyphenyl)methyl]-1-({4-[(2-oxopyridin-1-yl)methyl]phenyl}methyl)pyrazole-4-carboxamide]
